Source: patent US6436627B1, “Gene encoding an invertebrate α1 calcium channel subunit” (The Research Foundation of State University of New York, priority 1995, dated 2002)

Tests used:
Format in all cases: cell-based
[1] = biological target: T1, Drosophila Dmca1D calcium channel (L23RDD2 α1 + α2−δ + β) (Drosophila melanogaster, UniProt Q24270, A1391P/C1440T/D1375E/D1388K/D1403I/D1421E/D1422S/D1433P/DEL1408-1416/DEL1426-1431/E1379S/E1381Q/E1419P/E1434Y/E1435P/E1441G/G1404N/H1387E/H1396E/I1402K/INS1389RKKLARTA/INS1394QEVVGKPALEEAKEEKIELKSITAD/L1420N/M1439T/P1386E/P1400T/Q1392E/Q1417L/R1437P/S1378T/S1395G/T1399P/V1380A/V1436N); assay: Calcium channel currents in Xenopus oocytes expressing Drosophila L23RDD2 α1 with α2-δ and β subunits
T1 construct: rabbit cardiac α1C subunit amino acids 790-874 (85 aa insert replacing the fly II-III loop segment); expressed in transfected cells; host or cells: Xenopus oocytes injected with cRNA
Source text: (§1) Construct L23RDD2 in the pAGA2 vector (Wei et al. (1991) J. Biol. Chem. 266:21943-21947) encodes the Drosophila DmcalD calcium channel α1 subunit. The coding sequence begins with the fifth methionine in the published sequence (Zheng et al. (1995) J. Neurosci. 15:1132-1143). A part of the II-III cytoplasmic loop (amino acids […] in Zheng et al. (1995) J. Neurosci. 15:1132-1143) has been replaced with 85 amino acids from the rabbit cardiac α1C subunit (amino acids 790-874, Wei et al. 1991, supra ). The α2−δ subunit used in these studies is MXTα2−δ. This is an EcoRI fragment from the rabbit skeletal muscle α2−δ subunit described by Mikami et al. ((1989) Nature340:230-233) subcloned into the Xenopus oocyte expression vector pBScMXT (from L. Salkoff, Washington, St Louis). The Drosophila beta subunit clone used was β-DN2CI in oocyte expression vector pAGA2. This beta subunit isoform contains both conserved domains and the N2 form of form of the amino terminus. The rabbit cardiac α1C subunit clone (Wei et al. 1991, supra) (in the pAGA2 vector) was CardΔN60 in which the first 60 amino acids on the N terminus were deleted to enhance expression.
(§2) Injection mixtures were prepared in 1 mM Tris pH7.0 and 50 nl was injected into each oocyte. For studies of the Drosophila L23RDD2 channel αl subunit the concentrations of the “undiluted” cocktail in ng/ul were: 300 αl, 150 α2−δ, 83 β. For studies of the rabbit cardiac αl subunit the concentrations of the “undiluted” cocktail in ng/μl were: 12 α1, 6.6 α2−δ, 3.6 β. Oocytes were incubated at 18° C. in ND96 plus supplements (Goldin (1992) Methods Enz. 207:266-279) (changed daily) until recording.
(§3) Two different recording solutions were used. Solution 1 consisted of (in mM): 40 Ba(OH)2, 50 NaOH, 2 KOH, 1 niflumic acid, 0.1 EGTA, 5 HEPES, adjusted to pH 7.4 with methanesulfonic acid (Pragnell et al. (1994) Nature 368:67-70). Solution 2 was used for some experiments and consisted of (in mM): 40 Ba(OH)2, 52 TEA, 5 HEPES, adjusted to pH 7.4 with methanesulfonic acid (Yang et al. (1993) Nature 366:158-161). […]
(§4) FIG. 20 summarizes a dose response curve for the dihydropyridine antagonist nifedipine using oocytes expressing CRNA (in ng/ul): 150 L23RDD2 α1, 75 α2−δ, and 41.5 β. Each point represents 3 to 9 oocytes recorded in Solution 1. […] This compares well with the nifedipine sensitivity determined for this calcium channel in Drosophila larval muscle where 10 μM nifedipine blocks 80% of the current associated with the Dmca1D current (Gielow et al. (1995) J. Neurosci. 15:6085-6093). […] Thus, the Xenopus oocyte expression system is ready for use in testing compounds active against this calcium channel in insects. […]

[2] = biological target: T2, Drosophila Dmca1D calcium channel (L23RDD2 α1 + α2−δ + β) (Drosophila melanogaster, UniProt Q24270, A1391P/C1440T/D1375E/D1388K/D1403I/D1421E/D1422S/D1433P/DEL1408-1416/DEL1426-1431/E1379S/E1381Q/E1419P/E1434Y/E1435P/E1441G/G1404N/H1387E/H1396E/I1402K/INS1389RKKLARTA/INS1394[…]/L1420N/M1439T/P1386E/P1400T/Q1392E/Q1417L/R1437P/S1378T/S1395G/T1399P/V1380A/V1436N); assay: as above; conditions: 2 μM BayK8644, Solution 2, BAPTA preinjection
T2 construct: rabbit cardiac α1C subunit amino acids 790-874 (85 aa insert replacing the fly II-III loop segment); expressed in transfected cells; host or cells: Xenopus oocytes injected with cRNA
Source text: as §1, §2, §3, §4

[3] = biological target: T3, rabbit cardiac calcium channel (α1CΔN60 + α2−δ + β) (Oryctolagus cuniculus, UniProt P15381); assay: Calcium channel currents in Xenopus oocytes expressing the rabbit cardiac α1C subunit with α2-δ and β subunits; conditions: 2 μM BayK8644, Solution 2, BAPTA preinjection
T3 construct: expressed in transfected cells; host or cells: Xenopus oocytes injected with cRNA
Source text: We completed an analysis of 14 different chimeras to identify the region which was preventing expression of the Drosophila Dmca1D calcium channel currents in Xenopus oocytes. As a result of that analysis we defined a short region of 67 amino acids in the cytoplasmic loop between repeats II and III that was causing the difficulty (see FIG. 11). When an 85 amino acid segment from the rabbit cardiac α1 C subunit was substituted in place of this 67 amino acid Drosophila sequence, we were able to reproducibly generate small calcium channel currents using barium as the charge carrier. In this Example, and in the experiments described in the Examples below, we used a combination of subunit cRNAs. […] When control experiments were run using rabbit cardiac calcium channels, the same auxiliary subunits were used and the rabbit αlCΔN60 subunit was used in place of the Drosophila L23RDD2 α1 chimera.
Construct L23RDD2 in the pAGA2 vector (Wei et al. (1991) J. Biol. Chem. 266:21943-21947) encodes the Drosophila DmcalD calcium channel α1 subunit. The coding sequence begins with the fifth methionine in the published sequence (Zheng et al. (1995) J. Neurosci. 15:1132-1143). A part of the II-III cytoplasmic loop (amino acids 1222-1228 in Zheng et al. (1995) J. Neurosci. 15:1132-1143) has been replaced with 85 amino acids from the rabbit cardiac α1C subunit (amino acids 790-874, Wei et al. 1991, supra ). […]

T2 sequence (P13806 27-960, stated change not applied): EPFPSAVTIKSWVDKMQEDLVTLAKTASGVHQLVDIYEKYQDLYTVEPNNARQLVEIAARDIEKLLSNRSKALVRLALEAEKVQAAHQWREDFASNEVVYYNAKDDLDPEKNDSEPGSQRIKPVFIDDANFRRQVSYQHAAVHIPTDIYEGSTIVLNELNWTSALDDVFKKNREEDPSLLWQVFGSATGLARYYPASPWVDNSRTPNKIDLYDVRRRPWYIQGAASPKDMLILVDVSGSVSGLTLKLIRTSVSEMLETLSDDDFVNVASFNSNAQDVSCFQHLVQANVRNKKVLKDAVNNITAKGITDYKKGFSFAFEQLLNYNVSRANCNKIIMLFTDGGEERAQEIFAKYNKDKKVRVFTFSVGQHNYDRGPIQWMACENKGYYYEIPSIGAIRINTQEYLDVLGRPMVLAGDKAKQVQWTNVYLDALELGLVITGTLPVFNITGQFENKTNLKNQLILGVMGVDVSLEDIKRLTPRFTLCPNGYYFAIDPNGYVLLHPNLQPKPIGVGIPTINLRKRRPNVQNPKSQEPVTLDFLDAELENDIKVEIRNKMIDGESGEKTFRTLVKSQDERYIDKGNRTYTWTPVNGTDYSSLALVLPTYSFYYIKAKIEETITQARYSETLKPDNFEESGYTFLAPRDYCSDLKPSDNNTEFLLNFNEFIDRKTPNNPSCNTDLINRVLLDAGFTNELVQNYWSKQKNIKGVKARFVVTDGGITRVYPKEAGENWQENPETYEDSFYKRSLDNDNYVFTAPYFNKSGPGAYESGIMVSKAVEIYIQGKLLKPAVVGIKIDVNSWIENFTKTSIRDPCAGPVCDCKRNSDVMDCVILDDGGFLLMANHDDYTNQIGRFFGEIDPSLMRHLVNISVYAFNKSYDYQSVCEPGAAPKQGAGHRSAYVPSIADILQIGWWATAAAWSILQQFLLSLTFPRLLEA
T2 sequence (P13806 961-1106, stated change not applied): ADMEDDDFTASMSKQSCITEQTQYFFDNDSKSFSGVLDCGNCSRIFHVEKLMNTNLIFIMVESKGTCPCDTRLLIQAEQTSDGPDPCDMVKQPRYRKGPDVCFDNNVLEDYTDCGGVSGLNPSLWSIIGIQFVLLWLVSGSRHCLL
T2 sequence (Q24270 other isoform, or with tags, fused parts or gaps with the stated changes): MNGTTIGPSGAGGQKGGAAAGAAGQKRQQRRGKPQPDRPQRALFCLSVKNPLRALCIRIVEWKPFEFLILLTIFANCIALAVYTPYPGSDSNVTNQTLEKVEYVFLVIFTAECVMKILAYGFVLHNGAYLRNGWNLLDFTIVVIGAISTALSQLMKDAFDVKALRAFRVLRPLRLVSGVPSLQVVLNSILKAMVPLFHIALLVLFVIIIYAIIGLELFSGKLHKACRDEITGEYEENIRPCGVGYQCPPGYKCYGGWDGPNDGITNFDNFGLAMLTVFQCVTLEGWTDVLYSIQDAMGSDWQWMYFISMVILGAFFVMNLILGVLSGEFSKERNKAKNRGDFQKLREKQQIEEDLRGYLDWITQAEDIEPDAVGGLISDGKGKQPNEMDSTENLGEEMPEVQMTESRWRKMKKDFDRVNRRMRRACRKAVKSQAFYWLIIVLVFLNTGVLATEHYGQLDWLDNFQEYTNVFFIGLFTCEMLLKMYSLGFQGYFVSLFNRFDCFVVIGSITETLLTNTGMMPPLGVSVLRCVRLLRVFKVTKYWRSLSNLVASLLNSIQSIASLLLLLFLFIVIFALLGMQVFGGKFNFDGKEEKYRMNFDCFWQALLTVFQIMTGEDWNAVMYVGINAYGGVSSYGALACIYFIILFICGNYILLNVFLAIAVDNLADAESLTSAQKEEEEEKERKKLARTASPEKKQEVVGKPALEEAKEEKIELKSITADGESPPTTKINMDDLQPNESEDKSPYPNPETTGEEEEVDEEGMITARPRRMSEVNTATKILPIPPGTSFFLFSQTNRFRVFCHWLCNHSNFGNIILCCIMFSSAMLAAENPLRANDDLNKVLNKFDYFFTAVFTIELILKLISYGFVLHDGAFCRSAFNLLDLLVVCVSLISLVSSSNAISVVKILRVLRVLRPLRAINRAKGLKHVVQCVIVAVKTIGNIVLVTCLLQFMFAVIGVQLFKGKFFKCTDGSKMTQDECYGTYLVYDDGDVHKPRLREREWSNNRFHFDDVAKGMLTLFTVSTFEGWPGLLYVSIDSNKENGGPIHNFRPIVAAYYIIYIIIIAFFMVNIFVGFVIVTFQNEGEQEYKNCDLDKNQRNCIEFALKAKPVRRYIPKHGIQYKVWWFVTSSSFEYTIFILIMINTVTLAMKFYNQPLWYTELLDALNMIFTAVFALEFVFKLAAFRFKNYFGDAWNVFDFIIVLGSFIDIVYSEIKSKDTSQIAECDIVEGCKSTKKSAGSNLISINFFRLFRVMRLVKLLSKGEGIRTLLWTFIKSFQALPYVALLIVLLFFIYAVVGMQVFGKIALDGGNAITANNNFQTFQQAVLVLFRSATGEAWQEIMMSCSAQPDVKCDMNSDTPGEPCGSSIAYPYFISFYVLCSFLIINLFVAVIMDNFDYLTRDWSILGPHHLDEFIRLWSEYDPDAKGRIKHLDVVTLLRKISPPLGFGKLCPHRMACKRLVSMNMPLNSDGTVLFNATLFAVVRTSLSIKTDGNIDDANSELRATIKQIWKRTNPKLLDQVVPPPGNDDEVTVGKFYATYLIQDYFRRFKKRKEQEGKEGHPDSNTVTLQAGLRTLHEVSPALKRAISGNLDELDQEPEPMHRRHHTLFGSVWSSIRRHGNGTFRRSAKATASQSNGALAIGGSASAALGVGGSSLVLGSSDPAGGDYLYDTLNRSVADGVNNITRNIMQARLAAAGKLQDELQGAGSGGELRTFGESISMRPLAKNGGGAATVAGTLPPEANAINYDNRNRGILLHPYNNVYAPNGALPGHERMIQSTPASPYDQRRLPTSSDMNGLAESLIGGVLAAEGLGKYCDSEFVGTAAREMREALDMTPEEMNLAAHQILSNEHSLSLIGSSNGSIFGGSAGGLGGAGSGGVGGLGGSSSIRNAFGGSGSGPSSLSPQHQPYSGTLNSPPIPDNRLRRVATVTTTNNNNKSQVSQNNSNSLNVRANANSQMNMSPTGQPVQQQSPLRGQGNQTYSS
T1 sequence (P13806 27-960, stated change not applied): as the sequence (P13806 27-960, stated change not applied) above
T1 sequence (P13806 961-1106, stated change not applied): as the sequence (P13806 961-1106, stated change not applied) above
T1 sequence (Q24270 other isoform, or with tags, fused parts or gaps with the stated changes): as the sequence (Q24270 other isoform, or with tags, fused parts or gaps with the stated changes) above

SMILES	EC50 [1]	Effect of BayK on the channel current (in words) [2]	Effect on tail current kinetics in the presence of BayK (in words) [2]	Peak current in the presence of BayK ([2]; same oocyte without BayK 1548.5 nA)	Effect of BayK on the channel current (in words) [3]	Peak current in the presence of BayK ([3]; same oocyte without BayK 488.2 nA)
COC(=O)C1=C(C)NC(C)=C(C(=O)OC)C1c1ccccc1[N+](=O)[O-] [nifedipine]	~3 µM					
COC(=O)C1=C(C)NC(C)=C([N+](=O)[O-])C1c1ccccc1C(F)(F)F (stereo not drawn) [BayK8644]		no stimulation	no obvious change in kinetics	1208.1 nA	increase in the peak current and slowing of the tail currents	1673.7 nA
